Source: patent US5480885A, “Ergoline derivatives of 1-propinylamine, a process for the manufacture thereof and the use thereof for medicaments” (priority 1991, dated 1996)
pEC50: −log10 of the molar value. Entries after “also recorded” stand apart in the source; their conditions may differ. Like-named read-outs stand apart in the source and are kept apart here.

Columns and labels:
[1] = test system: isolated rabbit thoracic aorta; assay: constriction of the isolated rabbit thoracic aorta
[2] = target: T1, isolated rabbit thoracic aorta (serotonin) (Oryctolagus cuniculus, UniProt G1SYA7)
T1 construct: isolated rabbit thoracic aorta; from tissue; host or cells: isolated rabbit thoracic aorta
T1 sequence (G1SYA7 entry or part of it): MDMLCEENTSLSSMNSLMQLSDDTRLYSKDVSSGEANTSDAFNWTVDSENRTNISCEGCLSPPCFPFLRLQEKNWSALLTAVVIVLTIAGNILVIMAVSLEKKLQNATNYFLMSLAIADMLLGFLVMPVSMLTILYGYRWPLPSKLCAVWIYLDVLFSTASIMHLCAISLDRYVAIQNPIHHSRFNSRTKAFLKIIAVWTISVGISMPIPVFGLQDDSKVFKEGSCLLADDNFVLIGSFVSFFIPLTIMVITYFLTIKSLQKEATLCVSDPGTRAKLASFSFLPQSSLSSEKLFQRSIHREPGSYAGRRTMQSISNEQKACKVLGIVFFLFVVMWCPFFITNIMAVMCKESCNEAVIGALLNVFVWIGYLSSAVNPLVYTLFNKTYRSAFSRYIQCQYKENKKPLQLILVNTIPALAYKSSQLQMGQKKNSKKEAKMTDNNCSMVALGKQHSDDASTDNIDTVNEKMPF

isolated rat uterus = assay: uterotonic activity (isolated rat uterus); details: in words
[3] = test system: pentobarbital-anesthetized normotensive rats; assay: blood pressure and heart rate in pentobarbital-anesthetized normotensive rats; type: in vivo, rat; details: 450 μg/kg i.v.
pithed rats = assay: vasoconstriction / diastolic pressure in pithed rats (Gillespie); type: in vivo, rat; details: 450 μg/kg i.v.; in words
5-HT2 receptors = target: T2, 5-HT2 receptors (Mus musculus, UniProt P35363); assay: head twitch response caused by the compound in mice; type: in vivo
T2 construct: The head twitch model in mice; from tissue; host or cells: living mice (central nervous system)
T2 sequence (P35363 whole entry): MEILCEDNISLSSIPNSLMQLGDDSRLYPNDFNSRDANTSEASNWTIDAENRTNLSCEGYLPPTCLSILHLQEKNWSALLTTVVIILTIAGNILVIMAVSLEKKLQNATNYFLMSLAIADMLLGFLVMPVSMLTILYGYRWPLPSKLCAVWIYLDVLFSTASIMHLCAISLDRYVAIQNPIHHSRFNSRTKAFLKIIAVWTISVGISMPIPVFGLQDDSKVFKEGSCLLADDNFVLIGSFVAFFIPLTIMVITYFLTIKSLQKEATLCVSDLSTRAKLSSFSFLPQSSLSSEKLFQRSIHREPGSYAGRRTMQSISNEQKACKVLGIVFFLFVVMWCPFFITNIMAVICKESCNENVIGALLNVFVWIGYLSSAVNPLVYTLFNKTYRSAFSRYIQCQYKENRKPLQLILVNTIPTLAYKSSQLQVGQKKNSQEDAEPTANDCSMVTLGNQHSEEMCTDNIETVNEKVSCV
Description: The head twitch model in mice represents an experimental model for determining the hallucinogenic action of a compound (the method was described by Handley and Singh, Br.J.Pharmacol., 86, 297-303, 1985). It is believed that the response is conveyed via the 5-HT2 receptors.

pupil = assay: dilatation of the pupil in mice (Pulewka); type: in vivo; details: in words
[4] = acute toxicity in mice (Miller and Tainter); details: mouse, in vivo, intravenous
Description: Exptl. Biol. Med. 57, 261 (1944).

C#CCN(C)C(=O)[C@@H]1C=C2c3cccc4[nH]cc(c34)C[C@H]2N(C)C1 [Example 4, 9,10-Didehydro-N-methyl-N-(2'-propinyl)-6-methylergoline-8β-carboxamide]
receptors responsible for vasoconstriction ([1]; 0.39 μM (EC50)): predominantly the result of the activation of α1 -adrenergic receptors and to a lesser extent of the activation of 5-HT2 receptors
EC50 ([1]; Oryctolagus cuniculus, constriction of the isolated rabbit thoracic aorta, read-out: pD2 (converted)): 389 nM
pEC50 ([1]; Oryctolagus cuniculus, vasoconstriction, read-out: EC50): 6.41
constriction of the isolated rabbit thoracic aorta ([1]; in words): caused a constriction of the isolated rabbit thoracic aorta
intrinsic activity, aorta constriction ([1]; in words, vs serotonin): comparable to that of serotonin
mode of inhibition of serotonin constriction ([2]; in words): the antagonism was of competitive nature
serotonin-antagonistic activity ([2]; inactivated α1-adrenergic receptors, 0.01 to 0.3 μM): showed a serotonin-antagonistic activity
effect on maximum activity of serotonin ([2]; inactivated α1-adrenergic receptors, higher doses): noticeable decrease of the maximum activity of serotonin
Kb ([2]; vs serotonin, inactivated α1-adrenergic receptors, smaller doses (0.1 μM), read-out: pA2 (converted)): 4.27 nM
uterotonic activity (isolated rat uterus): lesser than the one of methylergometrine maleate
respiratory troubles [3]: respiratory troubles could be perceived
effect on carotid artery pressure ([3]; in words): statistically non-significant changes in carotid artery pressure
reduction in heart rate ([3]; vs initial level): 20%
peripheral vasoconstriction (pithed rats): transient, yet extraordinarily strong peripheric vasoconstriction
head twitch response caused by compound (5-HT2 receptors; 0.125 to 4 mg/kg i.p., in words): caused a head twitch response in mice; also recorded: at higher doses the activity decreased (autoinhibitory effect)
dose of maximum head twitch activity (5-HT2 receptors; i.p.): 1 mg/kg
dilatation of the pupil (pupil; dose-dependent, dose not given): dose-dependent dilatation of the pupil
behavioural effects in mice (pupil): an increased activity, tremor and piloerection
LD50 [4]: 55 mg/kg
